≈ marks a conversion by molar mass, not a printed value.
Assays:
Experiment in all cases: In vitro antibacterial evaluation: minimum inhibitory concentration (MIC), broth dilution method
Type in all cases: cell-based
[1] = system: Enterococcus sp.; conditions: broth dilution, 5×10^5 CFU/mL, 18 hours at 35° C.
Description: (§1) The minimum inhibitory concentration (MIC), the lowest concentration of the antibiotic which inhibits growth of the test organism, is determined by the broth dilution method using Muller-Hinton II […] (Baltimore Biological Laboratories) following the recommendations of the National Committee for Clinical Laboratory Standards [Methods for dilution antimicrobial susceptibility tests for bacteria that grow aerobically, approved standard M7-A2, National Committee for Clinical Laboratory Standards, Villanova, Pa].
(§2) An inoculum level of 5×10^5 CFU/mL, and a range of antibiotic concentrations (64-0.06 μg/mL) is used. […] The test organisms include a spectrum of Gram-positive bacteria comprised of Staphylococcus sp., Streptococcus sp. and Enterococcus sp. These organisms include recent clinical isolates that are resistant to methicillin, penicillin and/or vancomycin.

[2] = system: Escherichia coli; conditions: 5×10^5 CFU/mL, 18 hours at 35° C.
Description: as §1, §2

[3] = system: Staphylococcus sp.; conditions: for MIC Staphylococcus aureus (ATCC 29213): strain ATCC 29213; for MIC Staphylococcus aureus (GC 1131): strain GC 1131; for MIC Staphylococcus aureus (GC 4541): strain GC 4541; for MIC Staphylococcus aureus (GC 4542): strain GC 4542; for MIC Staphylococcus aureus-SMITH (GC 4543): strain GC 4543; for MIC Staphylococcus aureus (GC 4544): strain GC 4544; for MIC Staphylococcus aureus (GC 4545): strain GC 4545; for MIC Staphylococcus haemolyticus (GC 4546): strain GC 4546; for MIC Coagulase Negative Staphylococcus (GC 4547): strain GC 4547; for MIC Coagulase Negative Staphylococcus (GC 4548): strain GC 4548; for MIC Coagulase Negative Staphylococcus (GC 4549): strain GC 4549; for MIC Coagulase Negative Staphylococcus (GC 4551): strain GC 4551; for MIC Coagulase Negative Staphylococcus (ID-3941): strain ID-3941
Description: as §1, §2

[4] = system: Streptococcus sp.; conditions: broth dilution, 5×10^5 CFU/mL, 18 hours at 35° C.
Description: as §1, §2

[5] = broth dilution, 18 hours at 35° C.

Structure (SMILES)	MIC Enterococccus avium (GC 4558) [1]	MIC Enterococccus faecalis (ATCC 29212) [1]	MIC Enterococccus faecalis (GC 4552) [1]	MIC Enterococccus faecalis (GC 4553) [1]	MIC Enterococccus faecalis (GC 4554) [1]	MIC Enterococccus faecium (GC 2243) [1]	MIC Enterococccus faecium (GC 4556) [1]	MIC Enterococccus faecium (GC 4557) [1]	MIC Enterococcus faecalis (GC 2242) [1]	MIC Escherichia coli (ATCC 25922) [2]	MIC Staphylococcus aureus (ATCC 29213) [3]	MIC Staphylococcus aureus (GC 1131) [3]	MIC Staphylococcus aureus (GC 4541) [3]	MIC Staphylococcus aureus (GC 4542) [3]	MIC Staphylococcus aureus-SMITH (GC 4543) ([3]; 18 hours at 35° C.)	MIC Staphylococcus aureus-SMITH (GC 4543) [3, 5]	MIC Staphylococcus aureus (GC 4544) [3]	MIC Staphylococcus aureus (GC 4545) [3]	MIC Staphylococcus haemolyticus (GC 4546) [3]	MIC Staphylococcus haemolyticus (GC 4546) [3, 5]	other results
CC(c1ccccc1)C1NC(=O)CNC(=O)C(CO)NC(=O)C(C(O)C2CNC(=N)N2C2OC(CO)C(O)C(O)C2O)NC(=O)C(C(O)C2CNC(=N)N2)NC(=O)C(Cc2ccc(OC3OC(COC(=O)OCc4ccccc4)C(OC4OC(CO)C(O)C(O)C4O)C(O)C3O)cc2)NC1=O (stereo not drawn) [Example 101, Cyclo[glycyl-β-methylphenylalanyl-O-[4-O-hexopyranosyl-6-O-[(phenylmethoxy)carbonyl]-hexopyranosyl]tyrosyl-3-(2-iminoimidazolidin-4-yl)seryl-3-(3-hexopyranosyl-2-iminoimidazolidin-4-1/1)serylseryl]]	32 µg/mL (≈ 22.4 µM)	32 µg/mL (≈ 22.4 µM)	64 µg/mL (≈ 44.8 µM)	32 µg/mL (≈ 22.4 µM)	64 µg/mL (≈ 44.8 µM)	32 µg/mL (≈ 22.4 µM)	32 µg/mL (≈ 22.4 µM)	2 µg/mL (≈ 1.4 µM)	16 µg/mL (≈ 11.2 µM)	>64 µg/mL	4 µg/mL (≈ 2.8 µM)	4 µg/mL (≈ 2.8 µM)	4 µg/mL (≈ 2.8 µM)	8 µg/mL (≈ 5.6 µM)	4 µg/mL (≈ 2.8 µM)	4 µg/mL (≈ 2.8 µM)	8 µg/mL (≈ 5.6 µM)	4 µg/mL (≈ 2.8 µM)	4 µg/mL (≈ 2.8 µM)	4 µg/mL (≈ 2.8 µM)	MIC Coagulase Negative Staphylococcus (GC 4547) [3]: 2 µg/mL (≈ 1.4 µM); MIC Coagulase Negative Staphylococcus (GC 4547) [3, 5]: 2 µg/mL (≈ 1.4 µM); MIC Coagulase Negative Staphylococcus (GC 4548) [3]: 2 µg/mL (≈ 1.4 µM); MIC Coagulase Negative Staphylococcus (GC 4548) [3, 5]: 2 µg/mL (≈ 1.4 µM); MIC Coagulase Negative Staphylococcus (GC 4549) [3]: 1 µg/mL (≈ 0.7 µM); MIC Coagulase Negative Staphylococcus (GC 4549) [3, 5]: 1 µg/mL (≈ 0.7 µM); MIC Coagulase Negative Staphylococcus (GC 4551) [3]: 8 µg/mL (≈ 5.6 µM); MIC Coagulase Negative Staphylococcus (GC 4551) [3, 5]: 8 µg/mL (≈ 5.6 µM); MIC Coagulase Negative Staphylococcus (ID-3941) [3]: 1 µg/mL (≈ 0.7 µM); MIC Coagulase Negative Staphylococcus (ID-3941) [3, 5]: 1 µg/mL (≈ 0.7 µM); MIC Streptococcus agalactiae (GC 4564) [4]: 2 µg/mL (≈ 1.4 µM); MIC Streptococcus pneumoniae (GC 4565) [4]: <0.5 µg/mL; MIC Streptococcus pyogenes (ID-3187) [4]: 2 µg/mL (≈ 1.4 µM)
CC(c1ccccc1)C1NC(=O)CNC(=O)C(CO)NC(=O)C(C(O)C2CNC(=N)N2C2OC(CO)C(O)C(O)C2O)NC(=O)C(C(O)C2CNC(=N)N2)NC(=O)C(Cc2ccc(OC3OC(CO)C(OC4OC(COC(=O)OCc5ccccc5)C(O)C(O)C4O)C(O)C3O)cc2)NC1=O (stereo not drawn) [Example 101a, Cyclo[glycyl-β-methylphenylalanyl-O-[4-O-[6-O-[(phenylmethoxy)carbonyl]hexopyranosyl]-hexopyranosyl]tyrosyl-3-(2-iminoimidazolidin-4-yl)seryl-3-(3-hexopyranosyl-2-iminoimidazolidin-4-yl)serylseryl]]	16 µg/mL (≈ 11.2 µM)	16 µg/mL (≈ 11.2 µM)	16 µg/mL (≈ 11.2 µM)	16 µg/mL (≈ 11.2 µM)	16 µg/mL (≈ 11.2 µM)	16 µg/mL (≈ 11.2 µM)	16 µg/mL (≈ 11.2 µM)	2 µg/mL (≈ 1.4 µM)	8 µg/mL (≈ 5.6 µM)	64 µg/mL (≈ 44.8 µM)	2 µg/mL (≈ 1.4 µM)	4 µg/mL (≈ 2.8 µM)	2 µg/mL (≈ 1.4 µM)	4 µg/mL (≈ 2.8 µM)	8 µg/mL (≈ 5.6 µM)	8 µg/mL (≈ 5.6 µM)	4 µg/mL (≈ 2.8 µM)	4 µg/mL (≈ 2.8 µM)	1 µg/mL (≈ 0.7 µM)	1 µg/mL (≈ 0.7 µM)	MIC Coagulase Negative Staphylococcus (GC 4547) [3]: 1 µg/mL (≈ 0.7 µM); MIC Coagulase Negative Staphylococcus (GC 4547) [3, 5]: 1 µg/mL (≈ 0.7 µM); MIC Coagulase Negative Staphylococcus (GC 4548) [3]: 1 µg/mL (≈ 0.7 µM); MIC Coagulase Negative Staphylococcus (GC 4548) [3, 5]: 1 µg/mL (≈ 0.7 µM); MIC Coagulase Negative Staphylococcus (GC 4549) [3]: 1 µg/mL (≈ 0.7 µM); MIC Coagulase Negative Staphylococcus (GC 4549) [3, 5]: 1 µg/mL (≈ 0.7 µM); MIC Coagulase Negative Staphylococcus (GC 4551) [3]: 2 µg/mL (≈ 1.4 µM); MIC Coagulase Negative Staphylococcus (GC 4551) [3, 5]: 2 µg/mL (≈ 1.4 µM); MIC Coagulase Negative Staphylococcus (ID-3941) [3]: 1 µg/mL (≈ 0.7 µM); MIC Coagulase Negative Staphylococcus (ID-3941) [3, 5]: 1 µg/mL (≈ 0.7 µM); MIC Streptococcus agalactiae (GC 4564) [4]: 1 µg/mL (≈ 0.7 µM); MIC Streptococcus pneumoniae (GC 4565) [4]: <0.5 µg/mL; MIC Streptococcus pyogenes (ID-3187) [4]: 1 µg/mL (≈ 0.7 µM)
